As usually defined, the pIC50 is the IC50 on a negative log10 scale, so that one unit is a factor of ten.

pIC50: −log10 of the molar value.

The values below come from patent publication US20160075689A1, “POLYMERASE, ENDONUCLEASE, AND HELICASE INHIBITORS AND METHODS OF USING THEREOF” (THE BOARD OF TRUSTEES OF THE UNIVERSITY OF ARKANSAS, priority 2013, published 2016).

One test deals with T1, EndoG (Homo sapiens, UniProt Q14249).
T1 sequence (Q14249 49-297): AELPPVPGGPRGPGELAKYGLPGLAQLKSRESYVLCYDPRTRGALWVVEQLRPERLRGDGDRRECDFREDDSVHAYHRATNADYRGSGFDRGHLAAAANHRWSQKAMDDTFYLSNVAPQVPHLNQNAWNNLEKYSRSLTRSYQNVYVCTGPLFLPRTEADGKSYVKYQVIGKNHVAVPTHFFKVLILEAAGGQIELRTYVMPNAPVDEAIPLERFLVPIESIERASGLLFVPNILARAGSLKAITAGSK
Description: High-throughput EndoG screening assay. The class given is biochemical. As for the experimental part: A reaction mixture was prepared in each well of a white 96-well plate (Costar, Corning, N.Y.) as follows: 0.25 μM Cy5.5-labeled oligonucleotide (described in US provisional patent filed Oct. 19, 2012, Ser. No. 61/716,097) 0.3 mM MgCl2, 10 mM Tris-HCl, pH 7.4, 1 μl DMSO containing 5 or 50 ng of test compound, and nuclease-free water for a total reaction volume of 100 μl. The background (negative control) and uninhibited EndoG samples were measured using DMSO only, or DMSO containing recombinant EndoG (4 μg/ml), respectively. After addition of EndoG, fluorescence intensity was kinetically measured on a Bio-Tek Synergy 4.0 plate reader at 37° C. and mean velocity (mRFU/min) within 20 min was automatically calculated by the plate reader. The background was subtracted prior to the calculation of EndoG activity (%). The percent of EndoG activity was calculated from the mean velocity of a compound divided by the mean velocity of DMSO with recombinant EndoG, and the obtained value multiplied by 100.

In another test the target is T2, NS3 helicase (Hepatitis C virus genotype 1b, UniProt P26663).
T2 construct: analyze the helicase activity of NS3 helicase in the presence of the compounds; made in house
T2 sequence (P26663 1027-1657): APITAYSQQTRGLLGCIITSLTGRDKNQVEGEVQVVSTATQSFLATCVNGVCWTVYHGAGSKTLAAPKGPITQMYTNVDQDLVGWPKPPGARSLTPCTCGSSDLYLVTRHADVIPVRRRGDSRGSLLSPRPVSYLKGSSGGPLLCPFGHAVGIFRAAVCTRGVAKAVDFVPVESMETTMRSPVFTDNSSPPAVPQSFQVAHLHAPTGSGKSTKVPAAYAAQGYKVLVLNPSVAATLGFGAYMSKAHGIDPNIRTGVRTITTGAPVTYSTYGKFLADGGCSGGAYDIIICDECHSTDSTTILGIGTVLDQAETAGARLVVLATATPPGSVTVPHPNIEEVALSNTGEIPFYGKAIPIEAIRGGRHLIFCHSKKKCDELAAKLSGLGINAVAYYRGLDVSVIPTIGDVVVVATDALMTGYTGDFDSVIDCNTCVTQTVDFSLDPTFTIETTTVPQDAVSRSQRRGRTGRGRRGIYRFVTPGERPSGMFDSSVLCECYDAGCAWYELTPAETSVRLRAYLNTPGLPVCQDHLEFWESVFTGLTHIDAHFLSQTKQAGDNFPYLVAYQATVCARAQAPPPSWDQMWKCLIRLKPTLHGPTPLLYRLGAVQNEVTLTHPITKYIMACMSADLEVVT
Description: Gel-based helicase assay. Type of test: biochemical, HCV. The conditions noted are these: standard helicase assay. On the procedure: Benchtop unwinding assays were performed to analyze the helicase activity of NS3 helicase in the presence of the compounds. The unwinding reaction was initiated by mixing the right (N53, compound, assay buffer) and left (radiolabeled substrate, ATP, assay buffer) reactions, which was then quenched. The ssDNA product formed over time is separated from dsDNA substrate by 20% native PAGE. The ratio of dsDNA substrate to ssDNA product is quantified using ImageQuant and the fraction of substrate unwound at each time-point is plotted as a function of time using Kaleidagraph software.

The target of the next test is NS3-4A (Hepatitis C virus genotype 1b, UniProt P26663). Briefly: NS3 protease activity assay. The class given is biochemical, HCV. The conditions noted are these: 25 μM compound, 50 nM NS3-4A, 100 nM substrate. On the procedure: The protease activity of NS3 was analyzed in the presence of 25 μM ITBA-3-79, ITBA-3-82 or ITBA-3-85 by using 50 nM NS3-4A and 100 nM substrate (Ac-Asp-Glu-Asp-EDANS-Glu-Glu-Abu-L-Lactoyl-Ser-Lys DABCYL-NH2). The emission spectra of EDANS and the absorption spectra of DABCYL overlap making the peptide internally quenched. Cleaving of the substrate by the protease results in an increase in fluorescence that can be measured (λex−355 nm; λem, −500 nm). Telapravir (10 μM) was used as a positive control.
Sequence of NS3-4A (P26663 1027-1657): as above
Sequence of NS3-4A (P26663 1658-1711): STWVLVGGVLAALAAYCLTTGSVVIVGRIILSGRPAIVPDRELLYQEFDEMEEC

The next test concerns RNase A. Briefly: Ribonuclease A activity in NRK-52E cell extract. The class given is biochemical. The note with it: 0.1 μM and 10 μM. As for the experimental part:
(§1) As a follow up to Example 8, the effects of the EndoG inhibitors PNR-3-80 and PNR-3-82, at 0.1 μM and 10 μM each, on the activities of four other enzymes including RNase A, protease, LDH, and SOD in NRK-52E cell extract were examined. NRK-52E cells were grown to ˜80% confluence in […]. The medium was aspirated and the cells were rinsed with ice cold 1×PBS, pH 7.4. The cells were lysed in 50 mM Tris-HCl, pH 7.4, 150 mM NaCl, 1% Triton X-100 for 10 min on ice and then briefly sonicated. Cell debris was removed by centrifugation at 13,000×g for 10 min at 4° C. The supernatant was collected and stored at −80° C. until use. LDH, Protease, Superoxide dismutase (SOD), and Ribonuclease A (RNase A) activities were measured by using CytoTox 96® Non-Radioactive Cytotoxicity Assay kit (Promega, Madison, Wis.), Protease Fluorescent Detection kit (Sigma-Aldrich, Saint Louis, Mo.), SOD determination kit (Sigma-Aldrich, Saint Louis, Mo.), and Ribonuclease A Detection kit (Sigma-Aldrich, Saint Louis, Mo.), respectively, according to the manufacturer's instructions.

The subject of a further test is LDH. Description: LDH activity in NRK-52E cell extract. Type of test: biochemical. The conditions noted are these: 0.1 μM and 10 μM. On the procedure: as §1
A further test has as its system SOD. Briefly: SOD activity in NRK-52E cell extract. The conditions noted are these: 0.1 μM and 10 μM. Type of test: biochemical. On the procedure: as §1
The subject of test [1] is EndoG-expressing PC3 cells. Briefly: Cytoprotection against Docetaxel-induced cell death, LDH release and TUNEL assays. Type of test: cell-based, human. The note with it: Docetaxel 80 μM, inhibitor 50 μM. On the procedure: Docetaxel is an anti-cancer drug used to treat prostate cancer. Human invasive prostate cancer PC3 cells are known to be resistant to anticancer drugs. […] The resulting EndoG-expressing PC3 cells were exposed with Docetaxel (80 μM) in the absence or presence of the inhibitors, PNR-3-80 or PNR-3-82 (50 μM each). The cell death was measured by using two methods, LDH release assay and TUNEL assay. […]
(LDH leaks from cells whose membrane has failed.)

With `COc1ccc2c(c1)c(C=C1C(=O)NC(=S)NC1=O)cn2C(=O)c1ccc2ccccc2c1` [PNR-3-82], the remaining activity at 1 µM on EndoG (20 min, compound 1 μM, read-out: % EndoG activity in the presence of the compound) worked out at 21.8%. For the same compound, the pIC50 at EndoG (IC50 against EndoG, EndoG screening assay) was 6.21. In addition, the “NS3 helicase activity, gel electrophoresis” value at NS3 helicase is “confirmed the inhibition”. Moreover, the NS3 protease activity entry on NS3-4A is “do not block protease activity”. Also, in the test on RNase A, the “RNase A activity” value is “none of the two tested compounds had any inhibiting activity”. The LDH activity result in the test on LDH is on record as “none of the two tested compounds had any inhibiting activity”. Further, the SOD activity result in the test on SOD is recorded as “none of the two tested compounds had any inhibiting activity”. Besides, the “cytoprotection against Docetaxel-induced cell death” value in test [1] is listed as “cytoprotective”.
